These results are taken from patent US7994140B2, “Classes of compounds that interact with GPCRs” (Alchemia Limited, priority 2002, dated 2011).

In one test the target is T1, MC4 (Homo sapiens, UniProt P32245).
T1 construct: purchased Perkin Elmer BioSignal; host or cells: HEK 293
Description: GPCR radioligand binding (RLB) assay, melanocortin MC4, [125I]NDP-αMSH. The settings on record: 10 micromolar compound; recombinant human receptor membranes (HEK 293). The procedure, abridged:
(§1)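 Competition binding against radioligand ([125I]NDP-αMSH for MC4, [125I]SST-14 for SST5) on membranes of HEK 293 cells carrying the human receptor; buffer and incubation time optimized per receptor. Filtration through 0.5% PEI-treated glass fiber, washing, then scintillation counting.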

The target in the next test is T2, SST5 (Homo sapiens, UniProt P35346).
T2 construct: purchased Perkin Elmer BioSignal; host or cells: HEK 293
Description: GPCR radioligand binding (RLB) assay, somatostatin SST5, [125I]SST-14. The settings on record: 10 micromolar compound; recombinant human receptor membranes (HEK 293). The method in brief: as §1

T2 sequence (P35346 whole entry): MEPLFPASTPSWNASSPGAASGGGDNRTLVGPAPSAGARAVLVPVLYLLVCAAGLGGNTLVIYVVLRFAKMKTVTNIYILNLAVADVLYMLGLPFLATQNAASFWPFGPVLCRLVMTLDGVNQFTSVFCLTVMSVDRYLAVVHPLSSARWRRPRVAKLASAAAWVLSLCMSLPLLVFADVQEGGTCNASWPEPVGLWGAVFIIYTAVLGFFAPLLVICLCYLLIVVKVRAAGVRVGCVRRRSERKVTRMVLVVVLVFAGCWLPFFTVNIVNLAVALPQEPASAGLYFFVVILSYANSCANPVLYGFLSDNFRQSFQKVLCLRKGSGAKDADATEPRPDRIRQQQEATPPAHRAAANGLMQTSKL
T1 sequence (P32245 whole entry): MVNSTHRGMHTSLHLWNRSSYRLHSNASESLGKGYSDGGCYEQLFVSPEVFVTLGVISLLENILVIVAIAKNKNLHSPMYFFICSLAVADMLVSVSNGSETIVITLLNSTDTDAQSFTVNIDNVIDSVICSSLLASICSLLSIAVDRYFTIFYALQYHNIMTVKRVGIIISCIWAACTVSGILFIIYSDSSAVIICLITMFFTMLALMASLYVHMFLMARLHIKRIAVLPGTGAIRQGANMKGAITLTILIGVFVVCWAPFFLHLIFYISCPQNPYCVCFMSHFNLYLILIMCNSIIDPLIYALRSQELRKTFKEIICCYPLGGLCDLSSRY

As for `CSC1OC(COCc2ccc3ccccc3c2)C(O)C(OCc2ccccc2)C1NC(=O)CN` (stereo not shown) [Compound 137], the “MC4 inhibition at 10 micromolar” value on MC4 is recorded as “+ (Indicates inhibition greater than . . . 50%)”. Moreover, the “SST5 inhibition at 10 micromolar” value at SST5 was “+ (Indicates inhibition greater than . . . 50%)”.
`CSC1OC(COCc2ccc3ccccc3c2)C(O)C(OCc2ccccc2)C1NC(=O)CNC(=N)N` (stereo not shown) [Compound 138]: the “MC4 inhibition at 10 micromolar” value at MC4 was “+ (Indicates inhibition greater than . . . 50%)”. The “SST5 inhibition at 10 micromolar” value at SST5 was “+ (Indicates inhibition greater than . . . 50%)”.
For `CSC1OC(COCc2ccc3ccccc3c2)C(O)C(OCc2ccccc2)C1NC(=O)CCN` (stereo not shown) [Compound 139], the “MC4 inhibition at 10 micromolar” value on MC4 is reported as “+ (Indicates inhibition greater than . . . 50%)”. The “SST5 inhibition at 10 micromolar” value at SST5 is on record as “+ (Indicates inhibition greater than . . . 50%)”.
`CSC1OC(COCc2ccc3ccccc3c2)C(O)C(OCc2ccccc2)C1NC(=O)CCNC(=N)N` (stereo not shown) [Compound 140]: the “MC4 inhibition at 10 micromolar” value on MC4 is on record as “+ (Indicates inhibition greater than . . . 50%)”. The “SST5 inhibition at 10 micromolar” value on SST5 is “+ (Indicates inhibition greater than . . . 50%)”.
With `CSC1OC(COCc2ccc3ccccc3c2)C(O)C(OCc2ccccc2)C1NC(=O)CCCN` (stereo not shown) [Compound 141], the “MC4 inhibition at 10 micromolar” value on MC4 is listed as “+ (Indicates inhibition greater than . . . 50%)”. The “SST5 inhibition at 10 micromolar” value on SST5 is reported as “+ (Indicates inhibition greater than . . . 50%)”.
For the molecule `CSC1OC(COCc2ccc3ccccc3c2)C(O)C(OCc2ccccc2)C1NC(=O)CCCNC(=N)N` (stereo not shown) [Compound 142], the “MC4 inhibition at 10 micromolar” value on MC4 is “+ (Indicates inhibition greater than . . . 50%)”. Besides, the “SST5 inhibition at 10 micromolar” value on SST5 is recorded as “+ (Indicates inhibition greater than . . . 50%)”.
Consider `CSC1OC(COCc2ccccc2)C(O)C(OCc2ccc(Cl)cc2)C1NC(=O)CNC(=N)N` (stereo not shown) [Compound 144], for which the “MC4 inhibition at 10 micromolar” value at MC4 is reported as “+ (Indicates inhibition greater than . . . 50%)”. On SST5, the “SST5 inhibition at 10 micromolar” value is “+ (Indicates inhibition greater than . . . 50%)”.
Regarding `CSC1OC(COCc2ccccc2)C(O)C(OCc2ccc(Cl)cc2)C1NC(=O)CCN` (stereo not shown) [Compound 145], at MC4, the “MC4 inhibition at 10 micromolar” value is on record as “+ (Indicates inhibition greater than . . . 50%)”. Also, the “SST5 inhibition at 10 micromolar” value on SST5 was “+ (Indicates inhibition greater than . . . 50%)”.
Regarding `CSC1OC(COCc2ccccc2)C(O)C(OCc2ccc(Cl)cc2)C1NC(=O)CCNC(=N)N` (stereo not shown) [Compound 146], the “MC4 inhibition at 10 micromolar” value at MC4 is recorded as “+ (Indicates inhibition greater than . . . 50%)”. In addition, the “SST5 inhibition at 10 micromolar” value at SST5 is given as “+ (Indicates inhibition greater than . . . 50%)”.
With `CSC1OC(COCc2ccccc2)C(O)C(OCc2ccc(Cl)cc2)C1NC(=O)CCCNC(=N)N` (stereo not shown) [Compound 148], the “MC4 inhibition at 10 micromolar” value on MC4 is “+ (Indicates inhibition greater than . . . 50%)”. For the same molecule, the “SST5 inhibition at 10 micromolar” value at SST5 is listed as “+ (Indicates inhibition greater than . . . 50%)”.
As to `CSC1OC(COCc2ccc(Cl)cc2)C(O)C(OCc2ccc(Cl)cc2)C1NC(=O)CNC(=N)N` (stereo not shown) [Compound 150], the “MC4 inhibition at 10 micromolar” value at MC4 is recorded as “+ (Indicates inhibition greater than . . . 50%)”. Also, the “SST5 inhibition at 10 micromolar” value on SST5 is on record as “+ (Indicates inhibition greater than . . . 50%)”.
On to `CSC1OC(COCc2ccc(Cl)cc2)C(O)C(OCc2ccc(Cl)cc2)C1NC(=O)CCN` (stereo not shown) [Compound 151], for which the “MC4 inhibition at 10 micromolar” value at MC4 is recorded as “+ (Indicates inhibition greater than . . . 50%)”. Also, the “SST5 inhibition at 10 micromolar” value on SST5 was “+ (Indicates inhibition greater than . . . 50%)”.
Turning to `CSC1OC(COCc2ccc(Cl)cc2)C(O)C(OCc2ccc(Cl)cc2)C1NC(=O)CCNC(=N)N` (stereo not shown) [Compound 152], the “MC4 inhibition at 10 micromolar” value at MC4 is “+ (Indicates inhibition greater than . . . 50%)”. The “SST5 inhibition at 10 micromolar” value on SST5 is listed as “+ (Indicates inhibition greater than . . . 50%)”.
`CSC1OC(COCc2ccc(Cl)cc2)C(O)C(OCc2ccc(Cl)cc2)C1NC(=O)CCCNC(=N)N` (stereo not shown) [Compound 154]: the “MC4 inhibition at 10 micromolar” value at MC4 was “+ (Indicates inhibition greater than . . . 50%)”. The “SST5 inhibition at 10 micromolar” value on SST5 is listed as “+ (Indicates inhibition greater than . . . 50%)”.
